What was measured:
Type in all cases: cell-based
hMPV A2 TN/94-49 [1] = test: HMPV antiviral assay Method 1 (LLC-MK2 cells, ATP-Lite); details: hMPV A2 TN/94-49, LLC-MK2 cells
Method: In vitro HMPV antiviral activity was evaluated using the clinical isolate A2 strain TN 94-49 (obtained from Dr. John Williams, Vanderbilt University, Tennessee) and […] cells (ATCC #CCL-7), an immortalized kidney epithelial cell line from Macaca mulatta. Compounds were resuspended in dimethyl sulfoxide (DMSO) at 10 mM, serially diluted and added to a 384-well source plate. Subsequently, the compounds were diluted and transferred onto 384-well assay plates using the Echo-650 automated liquid handling system (Beckman Coulter, Indiana). The test compounds were assessed in duplicate at a top concentration of 2 μM followed by 2.5-fold serial dilutions to give a total of 10 concentration points. DMSO control wells were also included on the assay plates and were either infected or not, acting as positive and negative controls. A2 TN 94-49 virus infections were performed in-suspension with LLC-MK2 cells. The cells were washed twice with PBS and removed from the cell-culture flask with 0.25% trypsin-EDTA (Thermo Fisher Scientific, MA). The trypsin-EDTA was inactivated by resuspending in 2% fetal bovine serum (FBS) and OptiMEM (ThermoFisher Scientific, MA) containing 1% penicillin-streptomycin. Cells were pelleted by centrifuging for 5 minutes at 800 rpm, the supernatant was removed, and cells were re-suspended and washed in PBS plus 100 μg/mL CaCl2). This step was performed twice. Cells were then re-suspended in serum-free (SF)-OptiMEM containing 4 μg/mL TPCK-Trypsin (Sigma Aldrich, MO), 1% penicillin-streptomycin (ThermoFisher Scientific, MA) and 100 μg/mL CaCl2). Cells were counted and seeded at a density of 5,000 cells/well, 12.5 μL/well. Virus infections were done at a multiplicity of infection (MOI) of 0.005 with 12.5 μL added per well. Virus infections were performed in infection media which contained SF-OptiMEM, 100 μg/mL CaCl2) and 1% penicillin-streptomycin. HMPV viral stocks are suspended in infection media+5% glycerol, thus an equal volume of infection media+5% glycerol was added to uninfected wells to equalize the final % glycerol across all wells of the assay plate. The final concentration of TPCK-trypsin was 2 μg/mL. The assay plates were incubated at 37° C., 5% CO2 for 7 days. After 7 days incubation, 12.5 μL of ATP-Lite (PerkinElmer, MA) was added to each well and the raw luminescence values were determined using the Envision 2104 (Perkin Elmer, MA). The average of the raw luminescence values for the cells and virus only positive control wells was subtracted from all conditions tested and the percent cell health was determined by dividing these values by the average of the cells only negative control wells. EC50 values were then calculated by non-linear regression using a four-parameter curve logistic equation. The curve fit model employed was XLFit Dose Response One Site Model 200: y=(A+(B/(1+((x/C)^D)))), where A is the minimum y value, B is the maximum y value, C is the log EC50value, and D is the slope factor. Method 2: In Vitro HMPV Antiviral Activity was Evaluated Using the Clinical Isolate A2 Strain TN 94-49

[2] = test system: HUMAN RSV-A (“LONG” STRAIN); test: RSV-A assay (CPE, ATPlite) in Hep-2 cells; details: human respiratory syncytial virus, 120 h, MOI 0.1, 5-day incubation
Description: Methods for RSV-A Assay Hep-2 cells, (originally derived from tumors grown in irradiated-cortisonised weanling rats that had been injected with epidermoid carcinoma tissue from the larynx of a person, but later found to be indistinguishable from HeLa cells by PCR DNA analysis), were used for the culturing of genotype A, “Long” strain RSV. Flasks were inoculated with RSV and viral stocks were collected once cytopathic effect (CPE) was greater than 90%. Viral stocks in 25% sucrose media were snap frozen using liquid nitrogen to increase viral stability. Viral stock titers were quantified by tissue culture infectious dose 50% (TCID50) using 8,000 cells per well and 3-fold viral dilutions across a 96-well plate, cultured for 4 days. Viral stock titers were also quantified by a plaque forming unit assay, as described elsewhere.
Following extensive parameter testing, the final assay is run as follows: Hep-2 cells are seeded into the inner 60 wells of a 96-well plate at 8,000 cells per well in a volume of 50 μL using Growth Media (DMEM without phenol red, 1% L-Glut, 1% Penn/Strep, 1% nonessential amino acids, 10% heat-inactivated FBS). 2-fold serial dilutions of control and test compounds are added to the wells in duplicate in a total volume of 25 μL. Viral stock is then added to the wells at a multiplicity of infection (MOI) of 0.1 in a volume of 25 μL, bringing the total volume of each well to 100 μL. The MOI is calculated using the PFU/mL, or TCID50 if unavailable. Each 96-well plate has a control column of 6 wells with cells and virus but no compound (negative control, max CPE), a column with cells but no compound or virus (positive control, minimum CPE), and a column with no cells or virus or compound (background plate/reagent control). The control wells with cells but no virus are given an additional 25 μL of growth media containing an equal quantity of sucrose as those wells receiving the viral stock in order to keep consistent in media and volume conditions. The outer wells of the plate are filled with 125 μL of moat media (DMEM, 1% Penn/Strep) to act as a thermal and evaporative moat around the test wells. Following a 5-day incubation period, the plates are read using ATPlite (50 uL added per well), which quantifies the amount of ATP (a measure of cell health) present in each well. Assay plates are read using the Envision luminometer. […] EC50 ranges are as follows: A<0.2 μM; B>0.2 μM.

hMPV A2 TN/94-49 [3] = test: HMPV antiviral assay Method 2 (LLC-MK2 cells with CP-100-356, ATP-Lite); details: hMPV A2 TN/94-49, LLC-MK2 cells, 4 μM CP-100-356, Method 2
In short: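 LLC-MK2 cells infected in suspension with hMPV A2 TN/94-49 at MOI 0.16, in serum-free OptiMEM with final 2 μg/mL TPCK-trypsin and 2 μM CP-100-356 (P-gp inhibitor). Compounds tested in duplicate, top 200 nM, 2.5-fold, 10 points; 7 days at 37 °C. ATP-Lite cell health normalised to controls; EC50 by four-parameter fit.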

Compound | EC50 (hMPV A2 TN/94-49 [1]) [nM] | EC50 [2] [nM] | EC50 (hMPV A2 TN/94-49 [3]) [nM]
COc1cc(C(=O)NC[C@@](O)(c2cc3c(c(-c4cc(Cl)c(F)cc4F)n2)OC[C@]3(C)C(N)=O)c2cc(C)cs2)cc2cn(C3CC3)nc12 [Example 466] | > 500 | – | –
COc1cc(C(=O)NC[C@](O)(c2cccc(F)c2)c2cc3c(c(-c4ccc(C(C)(C)O)cc4)n2)OC[C@]3(C)C(N)=O)cc2cn(C3(F)CC3)nc12 [Example 398] | – | > 200 | > 200
COc1cc(C(=O)NC[C@@](O)(c2cccc(S(N)(=O)=O)c2)c2cc3c(c(-c4cc(Cl)c(F)cc4F)n2)OC[C@]3(C)C(N)=O)cc2cn(C3CC3)nc12 [Example 486] | – | < 200 | > 200
COc1cc(C(=O)NC[C@@](O)(c2cccc(C(C)=O)c2)c2cc3c(c(-c4cccc(Cl)c4Cl)n2)OC[C@]3(C)C(N)=O)cc2cn(C3CC3)nc12 [Example 493] | – | < 200 | < 200
C[C@]1(C(N)=O)COc2c1cc([C@@](O)(CNC(=O)c1ccc3nn(C4CC4)cc3c1)c1ccccc1)nc2-c1cc(Cl)c(F)cc1F [Example 101] | – | < 200 | < 200
C[C@]1(C(N)=O)COc2c1cc([C@@](O)(CNC(=O)c1cc(OC3CC3)c3nn(C4(F)CC4)cc3c1)c1cccc(F)c1)nc2-c1cccc(Cl)c1Cl [Example 339] | – | < 200 | < 200
COc1cc(C(=O)NC[C@@](O)(c2ccc(S(C)(=O)=O)cc2)c2cc3c(c(-c4cc(Cl)c(F)cc4F)n2)OC[C@]3(C)C(N)=O)cc2cn(C3CC3)nc12 [Example 482] | – | < 200 | > 200
COc1cc(C(=O)NC[C@@](O)(c2cccc(F)c2)c2cc3c(c(-c4ccc5c(c4Cl)OC(F)(F)O5)n2)OC[C@]3(C)C(N)=O)cc2oc(C)nc12 [Example 285] | – | < 200 | < 200
COc1cc(C(=O)NC[C@@](O)(c2cccc(F)n2)c2cc3c(c(-c4ccc(F)c(Cl)c4Cl)n2)OC[C@]3(C)C(N)=O)cc2cn(C3CC3)nc12 [Example 340] | – | < 200 | < 200
COc1cc(C(=O)NC[C@](O)(c2cccc(F)c2)c2cc3c(c(-c4cc(F)c(F)cc4C(N)=O)n2)OC[C@]3(C)C(N)=O)cc2cn(C3(F)CC3)nc12 [Example 406] | – | > 200 | > 200
C[C@]1(C(N)=O)COc2c1cc([C@@](O)(CNC(=O)c1ccc3nc(C4CC4)oc3c1)c1ccccc1)nc2-c1cccc(Cl)c1Cl [Example 97] | – | < 200 | < 200
COc1cc(C(=O)NC[C@@](O)(c2cccc(F)n2)c2cc3c(c(-c4cc(Cl)c(F)cc4F)n2)OC[C@]3(C)C(N)=O)cc2cc(C3CC3)nn12 [Example 206] | – | < 200 | < 200
COc1cc([C@](O)(CNC(=O)c2cc(OC)c3nn(C(F)F)cc3c2)c2cc3c(c(-c4cccc(Cl)c4Cl)n2)OC[C@]3(C)C(N)=O)cc(OC)n1 [Example 498] | – | < 200 | < 200
COc1cc(C(=O)NC[C@@](O)(c2cccc(Cl)n2)c2cc3c(c(-c4cc(Cl)c(F)cc4F)n2)OC[C@]3(C)C(N)=O)cc2cn(C3CC3)nc12 [Example 489] | – | < 200 | < 200

Results, then the compound that gave them:

EC50 (hMPV A2 TN/94-49 [1]) [nM] | EC50 [2] [nM] | EC50 (hMPV A2 TN/94-49 [3]) [nM] | Compound
< 500 | – | – | COc1cc(C(=O)NC[C@@](O)(c2ccccc2)c2cc3c(c(-c4cc(Cl)c(F)cc4F)n2)OC[C@]3(C)C(N)=O)cc2ccc(C)nc12 [Example 79]
– | < 200 | < 200 | C[C@]1(C(N)=O)COc2c1cc([C@@](O)(CNC(=O)c1cc(OC3CC3)c3nn(C4CC4)cc3c1)c1ccccc1)nc2-c1cc(Cl)c(F)cc1F [Example 98]
– | < 200 | < 200 | COc1cc(C(=O)NC[C@@](O)(c2ccccc2)c2cc3c(c(-c4cc(Cl)c(F)cc4F)n2)OC[C@]3(C)C(N)=O)cc2oc(N)nc12 [Example 237]
– | < 200 | < 200 | C[C@]1(C(N)=O)COc2c1cc([C@@](O)(CNC(=O)c1cc(OC3CC3)c3ncc(Cl)cc3c1)c1ccccc1)nc2-c1cc(Cl)c(F)cc1F [Example 196]
– | < 200 | < 200 | COc1cc(C(=O)NC[C@@](O)(c2ccccc2)c2cc3c(c(-c4cc(C(F)F)c(F)cc4F)n2)OC[C@]3(C)C(N)=O)cc2cn(C(F)F)nc12 [Example 300]
– | < 200 | < 200 | COc1cc(C(=O)NC[C@@](O)(c2ccccc2)c2cc3c(c(-c4cc(C(F)(F)F)c(F)cc4F)n2)OC[C@]3(C)C(N)=O)cc2cn(C3(F)CC3)nc12 [Example 303]
– | < 200 | < 200 | COc1cc(C(=O)NC[C@@](O)(c2ccccc2)c2cc3c(c(-c4cc(Cl)c(F)cc4F)n2)OC[C@]3(C)C(N)=O)cn2cc(C3CC3)nc12 [Example 115]
– | < 200 | > 200 | C[C@]1(C(N)=O)COc2c1cc([C@@](O)(CNC(=O)c1cc(Cl)c3[nH]ncc3c1)c1ccccc1)nc2-c1cc(Cl)c(F)cc1F [Example 117]
– | < 200 | < 200 | [2H]C([2H])([2H])NC(=O)[C@@]1(C)COc2c1cc([C@@](O)(CNC(=O)c1cc(OC)c3nn(C4(F)CC4)cc3c1)c1ccccc1)nc2-c1cc(Cl)c(F)cc1F [Example 109]
– | < 200 | < 200 | COc1cc(C(=O)NC[C@@](O)(c2ccccc2)c2cc3c(c(-c4cc(C(F)(F)F)c(F)cc4F)n2)OC[C@]3(C)C(N)=O)cc2oc(C3CC3)nc12 [Example 305]
– | < 200 | < 200 | Cc1nc2ccc(C(=O)NC[C@@](O)(c3ccccc3)c3cc4c(c(-c5cc(F)c(F)cc5F)n3)OC[C@]4(C)C(N)=O)cc2o1 [Example 192]
– | < 200 | < 200 | COc1cc(C(=O)NC[C@@](O)(c2ccccc2)c2cc3c(c(-c4cccc(Cl)c4F)n2)OC[C@]3(C)C(N)=O)cc2cn(C3(F)CC3)nc12 [Example 369]
– | < 200 | > 200 | COc1cc(-c2nc([C@@](O)(CNC(=O)c3cc(OC)c4nn(C5(F)CC5)cc4c3)c3ccccc3)cc3c2OC[C@]3(C)C(N)=O)c(F)cc1F [Example 364]
– | < 200 | < 200 | C[C@]1(C(N)=O)COc2c1cc([C@@](O)(CNC(=O)c1cc(Cl)c3nn(C4CC4)cc3c1)c1ccccc1)nc2-c1cc(Cl)c(F)cc1F [Example 99]
